Assay results reported in ChEMBL document CHEMBL4024706 (Eur J Med Chem, 2017).

How the values were obtained:
[1] = AUC (0 to infinity) in Sprague-Dawley rat at 1 mg/kg, iv by LC-MS/MS method; assay type: ADME, organism-based; parameters: dose 1 mg/kg, route intravenous, time infinity; conditions: in vivo
[2] = test system: Tyrosine-protein kinase ABL1 (Homo sapiens), P00519 [M351T]; assay: Inhibition of human phosphorylated ABL1 M351T mutant (S229 to K512 residues) expressed in mammalian expression system assessed as residual activity at 1 uM by Kinomescan method relative to control
[3] = target: Bone morphogenetic protein receptor type-1B (Homo sapiens) (UniProt O00238); assay: Inhibition of wild-type human partial length BMPR1B (D178 to L502 residues) expressed in mammalian expression system assessed as residual activity at 1 uM by Kinomescan method relative to control
[4] = target: Calcium/calmodulin-dependent protein kinase type II subunit gamma (Homo sapiens) (UniProt Q13555); assay: Inhibition of wild-type human partial length CAMK2G (R9 to A303 residues) expressed in bacterial expression system assessed as residual activity at 1 uM by Kinomescan method relative to control
[5] = target: Tyrosine-protein kinase CSK (Homo sapiens) (UniProt P41240); assay: Inhibition of wild-type human full length CSK (M1 to L450 residues) expressed in bacterial expression system assessed as residual activity at 1 uM by Kinomescan method relative to control
[6] = target: Death-associated protein kinase 3 (Homo sapiens) (UniProt O43293); assay: Inhibition of wild-type human partial length DAPK3 (M1 to A277 residues) expressed in bacterial expression system assessed as residual activity at 1 uM by Kinomescan method relative to control
[7] = target: Dual specificity tyrosine-phosphorylation-regulated kinase 1A (Homo sapiens) (UniProt Q13627); assay: Inhibition of wild-type human partial length DYRK1A (H129 to S509 residues) expressed in mammalian expression system assessed as residual activity at 1 uM by Kinomescan method relative to control
[8] = test system: Epidermal growth factor receptor (Homo sapiens), P00533 [L861Q]; assay: Inhibition of human partial length EGFR L861Q mutant (R669 to V1011 residues) expressed in bacterial expression system assessed as residual activity at 1 uM by Kinomescan method relative to control
[9] = target: Ephrin type-B receptor 2 (Homo sapiens) (UniProt P29323); assay: Inhibition of wild-type human partial length EPHB2 (I597 to L902 residues) expressed in bacterial expression system assessed as residual activity at 1 uM by Kinomescan method relative to control
[10] = test system: Receptor-type tyrosine-protein kinase FLT3 (Homo sapiens), P36888 [N841I]; assay: Inhibition of human partial length FLT3 N841I mutant (V592 to Y969 residues) expressed in bacterial expression system assessed as residual activity at 1 uM by Kinomescan method relative to control
[11] = target: Glycogen synthase kinase-3 beta (Homo sapiens) (UniProt P49841); assay: Inhibition of wild-type human full length GSK3B (M1 to T433 residues) expressed in mammalian expression system assessed as residual activity at 1 uM by Kinomescan method relative to control
[12] = target: Inhibitor of nuclear factor kappa-B kinase subunit alpha (Homo sapiens) (UniProt O15111); assay: Inhibition of wild-type human full length IKK-alpha (M1 to E745 residues) expressed in mammalian expression system assessed as residual activity at 1 uM by Kinomescan method relative to control
[13] = test system: Mast/stem cell growth factor receptor Kit (Homo sapiens), P10721 [L576P]; assay: Inhibition of human partial length KIT L576P mutant (Y545 to D952 residues) expressed in bacterial expression system assessed as residual activity at 1 uM by Kinomescan method relative to control
[14] = target: LIM domain kinase 2 (Homo sapiens) (UniProt P53671); assay: Inhibition of wild-type human full length LIMK2 (M1 to P638 residues) expressed in bacterial expression system assessed as residual activity at 1 uM by Kinomescan method relative to control
[15] = target: Serine/threonine-protein kinase MAK (Homo sapiens) (UniProt P20794); assay: Inhibition of wild-type human partial length MAK (M1 to P314 residues) expressed in bacterial expression system assessed as residual activity at 1 uM by Kinomescan method relative to control
[16] = target: Mitogen-activated protein kinase kinase kinase 2 (Homo sapiens) (UniProt Q9Y2U5); assay: Inhibition of wild-type human partial length MAP3K2 (S315 to H619 residues) expressed in mammalian expression system assessed as residual activity at 1 uM by Kinomescan method relative to control
[17] = target: Serine/threonine-protein kinase MARK2 (Homo sapiens) (UniProt Q7KZI7); assay: Inhibition of wild-type human partial length MARK2 (M1 to R450 residues) expressed in bacterial expression system assessed as residual activity at 1 uM by Kinomescan method relative to control
[18] = target: Microtubule-associated serine/threonine-protein kinase 1 (Homo sapiens) (UniProt Q9Y2H9); assay: Inhibition of wild-type human partial length MAST1 (S346 to V730 residues) expressed in mammalian expression system assessed as residual activity at 1 uM by Kinomescan method relative to control
[19] = target: Serine/threonine-protein kinase 4 (Homo sapiens) (UniProt Q13043); assay: Inhibition of wild-type human full length MST1 (M1 to F487 residues) expressed in bacterial expression system assessed as residual activity at 1 uM by Kinomescan method relative to control
[20] = target: Serine/threonine-protein kinase PAK 1 (Homo sapiens) (UniProt Q13153); assay: Inhibition of wild-type human partial length PAK1 (S149 to H545 residues) expressed in bacterial expression system assessed as residual activity at 1 uM by Kinomescan method relative to control
[21] = test system: Phosphatidylinositol 4,5-bisphosphate 3-kinase catalytic subunit alpha isoform (Homo sapiens), P42336 [C420R]; assay: Inhibition of human partial length PIK3CA C420R mutant (R108 to N1068 residues) expressed in mammalian expression system assessed as residual activity at 1 uM by Kinomescan method relative to control
[22] = target: Serine/threonine-protein kinase D1 (Homo sapiens) (UniProt Q15139); assay: Inhibition of wild-type human partial length PRKD1 (G551 to E870 residues) expressed in bacterial expression system assessed as residual activity at 1 uM by Kinomescan method relative to control
[23] = target: Receptor-interacting serine/threonine-protein kinase 2 (Homo sapiens) (UniProt O43353); assay: Inhibition of wild-type human partial length RIPK2 (M1 to K310 residues) expressed in bacterial expression system assessed as residual activity at 1 uM by Kinomescan method relative to control
[24] = target: Angiopoietin-1 receptor (Homo sapiens) (UniProt Q02763); assay: Inhibition of wild-type human partial length TIE2 (N804 to T1112 residues) expressed in bacterial expression system assessed as residual activity at 1 uM by Kinomescan method relative to control
[25] = target: Serine/threonine-protein kinase TNNI3K (Homo sapiens) (UniProt Q59H18); assay: Inhibition of wild-type human full length TNNI3K (M1 to S835 residues) expressed in bacterial expression system assessed as residual activity at 1 uM by Kinomescan method relative to control

Bone morphogenetic protein receptor type-1B (Homo sapiens), sequence (O00238 whole entry, the tested form may be a part): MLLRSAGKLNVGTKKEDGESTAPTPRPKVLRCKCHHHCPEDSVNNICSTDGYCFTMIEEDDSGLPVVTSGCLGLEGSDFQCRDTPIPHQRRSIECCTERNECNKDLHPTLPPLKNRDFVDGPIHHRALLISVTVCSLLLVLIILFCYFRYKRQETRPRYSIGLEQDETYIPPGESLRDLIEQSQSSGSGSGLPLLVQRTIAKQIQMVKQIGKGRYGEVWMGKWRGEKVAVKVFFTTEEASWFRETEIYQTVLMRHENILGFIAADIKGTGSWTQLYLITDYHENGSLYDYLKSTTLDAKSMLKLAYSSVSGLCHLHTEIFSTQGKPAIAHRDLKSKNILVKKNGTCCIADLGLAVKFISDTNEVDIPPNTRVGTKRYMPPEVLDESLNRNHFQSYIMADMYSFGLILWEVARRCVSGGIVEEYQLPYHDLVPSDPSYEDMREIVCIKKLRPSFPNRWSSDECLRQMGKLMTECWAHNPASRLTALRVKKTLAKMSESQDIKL
Receptor-interacting serine/threonine-protein kinase 2 (Homo sapiens), sequence (O43353 whole entry, the tested form may be a part): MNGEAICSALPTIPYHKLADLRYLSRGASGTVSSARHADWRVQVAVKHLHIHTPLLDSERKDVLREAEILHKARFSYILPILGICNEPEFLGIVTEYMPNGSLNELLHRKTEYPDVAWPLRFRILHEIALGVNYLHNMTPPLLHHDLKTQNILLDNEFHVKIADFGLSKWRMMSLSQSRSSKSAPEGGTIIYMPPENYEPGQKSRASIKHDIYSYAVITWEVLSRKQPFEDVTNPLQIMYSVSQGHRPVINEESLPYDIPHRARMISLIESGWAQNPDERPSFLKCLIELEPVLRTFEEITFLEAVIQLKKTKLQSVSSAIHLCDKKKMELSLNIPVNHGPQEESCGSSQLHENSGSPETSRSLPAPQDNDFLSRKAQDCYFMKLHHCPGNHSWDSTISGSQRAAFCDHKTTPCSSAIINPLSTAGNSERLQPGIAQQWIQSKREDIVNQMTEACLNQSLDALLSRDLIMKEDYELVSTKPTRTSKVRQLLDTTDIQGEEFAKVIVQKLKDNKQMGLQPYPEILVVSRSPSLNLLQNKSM
Tyrosine-protein kinase CSK (Homo sapiens), sequence (P41240 2-450 limits assumed): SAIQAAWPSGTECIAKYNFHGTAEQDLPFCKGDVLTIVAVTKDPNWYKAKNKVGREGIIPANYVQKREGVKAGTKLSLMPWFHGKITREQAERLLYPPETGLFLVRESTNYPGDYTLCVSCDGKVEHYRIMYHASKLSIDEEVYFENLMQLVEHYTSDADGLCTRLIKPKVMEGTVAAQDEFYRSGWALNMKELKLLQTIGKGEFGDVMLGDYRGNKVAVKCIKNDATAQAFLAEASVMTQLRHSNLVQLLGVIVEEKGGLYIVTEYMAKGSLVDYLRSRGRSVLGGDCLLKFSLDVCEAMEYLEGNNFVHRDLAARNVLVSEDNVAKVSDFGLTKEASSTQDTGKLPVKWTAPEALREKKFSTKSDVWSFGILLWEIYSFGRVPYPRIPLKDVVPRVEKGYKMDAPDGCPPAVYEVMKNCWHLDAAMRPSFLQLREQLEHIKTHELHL
Glycogen synthase kinase-3 beta (Homo sapiens), sequence (P49841 whole entry, looked up, the tested form may be a part): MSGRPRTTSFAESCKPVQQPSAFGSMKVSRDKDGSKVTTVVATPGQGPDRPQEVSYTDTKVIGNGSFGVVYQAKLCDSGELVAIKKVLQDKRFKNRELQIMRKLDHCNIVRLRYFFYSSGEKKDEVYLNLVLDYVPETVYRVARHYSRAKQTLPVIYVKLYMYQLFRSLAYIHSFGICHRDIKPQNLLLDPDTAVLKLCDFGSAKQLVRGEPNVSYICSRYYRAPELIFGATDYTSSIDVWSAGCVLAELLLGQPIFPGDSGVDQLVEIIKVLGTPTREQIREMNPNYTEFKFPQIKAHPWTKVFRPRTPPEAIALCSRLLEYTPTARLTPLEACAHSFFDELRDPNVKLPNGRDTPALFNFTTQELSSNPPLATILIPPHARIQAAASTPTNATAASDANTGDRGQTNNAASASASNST
Serine/threonine-protein kinase PAK 1 (Homo sapiens), sequence (Q13153 whole entry, the tested form may be a part, canonical isoform): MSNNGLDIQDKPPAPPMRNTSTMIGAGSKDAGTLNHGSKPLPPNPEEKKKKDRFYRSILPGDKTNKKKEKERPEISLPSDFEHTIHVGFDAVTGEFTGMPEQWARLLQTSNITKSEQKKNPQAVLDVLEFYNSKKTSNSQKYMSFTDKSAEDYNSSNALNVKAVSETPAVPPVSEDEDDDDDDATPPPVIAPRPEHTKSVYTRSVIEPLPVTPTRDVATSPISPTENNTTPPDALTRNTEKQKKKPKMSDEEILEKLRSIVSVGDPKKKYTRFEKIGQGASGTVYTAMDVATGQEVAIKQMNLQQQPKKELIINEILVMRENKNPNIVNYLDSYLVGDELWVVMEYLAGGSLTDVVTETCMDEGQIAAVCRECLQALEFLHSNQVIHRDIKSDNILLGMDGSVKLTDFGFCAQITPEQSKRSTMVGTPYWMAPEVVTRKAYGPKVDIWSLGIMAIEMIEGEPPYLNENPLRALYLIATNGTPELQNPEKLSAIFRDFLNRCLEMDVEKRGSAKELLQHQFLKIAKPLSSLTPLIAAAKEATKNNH
Serine/threonine-protein kinase D1 (Homo sapiens), sequence (Q15139 whole entry, the tested form may be a part): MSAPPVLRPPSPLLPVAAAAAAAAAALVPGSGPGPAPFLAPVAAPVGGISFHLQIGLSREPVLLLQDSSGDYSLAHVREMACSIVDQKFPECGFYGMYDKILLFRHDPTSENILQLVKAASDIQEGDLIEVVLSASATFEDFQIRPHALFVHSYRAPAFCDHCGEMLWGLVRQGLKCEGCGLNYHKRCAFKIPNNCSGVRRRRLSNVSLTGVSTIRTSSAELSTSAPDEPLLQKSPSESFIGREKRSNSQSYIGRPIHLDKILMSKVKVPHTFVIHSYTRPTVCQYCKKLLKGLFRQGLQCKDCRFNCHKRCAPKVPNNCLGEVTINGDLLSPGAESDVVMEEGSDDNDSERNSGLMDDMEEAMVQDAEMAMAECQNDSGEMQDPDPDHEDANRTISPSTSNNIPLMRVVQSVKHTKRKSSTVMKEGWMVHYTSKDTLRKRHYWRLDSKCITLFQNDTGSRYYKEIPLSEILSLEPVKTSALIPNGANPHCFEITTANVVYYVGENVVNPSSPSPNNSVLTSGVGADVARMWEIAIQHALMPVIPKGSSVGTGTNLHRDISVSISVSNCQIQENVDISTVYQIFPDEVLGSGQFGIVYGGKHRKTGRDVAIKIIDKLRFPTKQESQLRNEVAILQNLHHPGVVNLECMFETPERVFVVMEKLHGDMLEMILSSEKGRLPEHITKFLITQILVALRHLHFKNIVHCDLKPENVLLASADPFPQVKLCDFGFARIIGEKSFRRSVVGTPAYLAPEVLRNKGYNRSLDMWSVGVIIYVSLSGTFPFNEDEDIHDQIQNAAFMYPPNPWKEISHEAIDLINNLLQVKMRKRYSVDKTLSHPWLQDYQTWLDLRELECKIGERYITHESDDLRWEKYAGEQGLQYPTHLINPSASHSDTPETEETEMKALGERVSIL
Serine/threonine-protein kinase 4 (Homo sapiens), sequence (Q13043 whole entry, the tested form may be a part): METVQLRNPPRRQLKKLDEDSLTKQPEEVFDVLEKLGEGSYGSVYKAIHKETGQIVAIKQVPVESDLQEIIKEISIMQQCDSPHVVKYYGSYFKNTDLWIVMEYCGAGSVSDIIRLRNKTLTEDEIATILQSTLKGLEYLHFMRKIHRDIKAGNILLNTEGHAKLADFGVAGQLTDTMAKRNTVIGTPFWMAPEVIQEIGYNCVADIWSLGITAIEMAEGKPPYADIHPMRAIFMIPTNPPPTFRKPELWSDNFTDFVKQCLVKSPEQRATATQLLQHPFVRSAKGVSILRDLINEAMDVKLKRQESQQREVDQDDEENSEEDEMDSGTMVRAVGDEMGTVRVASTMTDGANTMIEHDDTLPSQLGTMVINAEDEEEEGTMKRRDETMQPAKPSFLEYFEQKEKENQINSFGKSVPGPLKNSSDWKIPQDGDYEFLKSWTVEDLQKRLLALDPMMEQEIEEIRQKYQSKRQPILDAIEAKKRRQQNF
Death-associated protein kinase 3 (Homo sapiens), sequence (O43293 whole entry, looked up, the tested form may be a part): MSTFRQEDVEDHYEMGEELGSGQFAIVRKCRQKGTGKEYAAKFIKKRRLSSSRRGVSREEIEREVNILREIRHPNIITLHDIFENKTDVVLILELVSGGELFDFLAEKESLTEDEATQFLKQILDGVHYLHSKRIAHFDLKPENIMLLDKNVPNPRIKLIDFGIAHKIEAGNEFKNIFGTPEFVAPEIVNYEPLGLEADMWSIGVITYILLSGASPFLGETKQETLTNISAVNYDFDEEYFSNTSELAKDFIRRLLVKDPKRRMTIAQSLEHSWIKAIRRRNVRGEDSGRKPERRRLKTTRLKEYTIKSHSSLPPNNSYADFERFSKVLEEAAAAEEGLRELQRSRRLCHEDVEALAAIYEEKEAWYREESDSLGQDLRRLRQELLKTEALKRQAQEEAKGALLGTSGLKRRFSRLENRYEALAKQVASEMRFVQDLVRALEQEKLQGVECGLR
Calcium/calmodulin-dependent protein kinase type II subunit gamma (Homo sapiens), sequence (Q13555 whole entry, the tested form may be a part): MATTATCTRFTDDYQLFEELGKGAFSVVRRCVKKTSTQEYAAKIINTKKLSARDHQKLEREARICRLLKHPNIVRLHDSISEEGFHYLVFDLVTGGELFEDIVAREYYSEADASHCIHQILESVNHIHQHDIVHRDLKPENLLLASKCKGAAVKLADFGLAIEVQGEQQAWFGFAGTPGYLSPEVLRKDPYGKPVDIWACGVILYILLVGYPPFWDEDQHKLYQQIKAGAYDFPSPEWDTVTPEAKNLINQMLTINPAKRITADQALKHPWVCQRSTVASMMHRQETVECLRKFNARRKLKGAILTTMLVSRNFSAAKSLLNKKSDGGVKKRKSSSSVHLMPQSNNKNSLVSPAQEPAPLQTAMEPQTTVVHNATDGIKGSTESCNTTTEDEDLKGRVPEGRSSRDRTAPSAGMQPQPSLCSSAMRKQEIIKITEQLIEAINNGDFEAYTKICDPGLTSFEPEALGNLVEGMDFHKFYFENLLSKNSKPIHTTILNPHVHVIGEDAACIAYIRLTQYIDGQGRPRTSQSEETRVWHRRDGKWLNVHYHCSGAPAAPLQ

C=CC(=O)Nc1cc(Nc2cc(-c3cccc(NC(=O)c4ccc(C(C)(C)C)cc4)c3C)cn(C)c2=O)ccc1C(=O)N1CCOCC1
AUC(0-inf) [1]: 183 ng·h/mL | Activity [2]: 97% | Activity [3]: 100% | Activity [4]: 100% | Activity [5]: 100% | Activity [6]: 100% | Activity [7]: 100% | Activity [8]: 100% | Activity [9]: 100% | Activity [10]: 100% | Activity [11]: 87% | Activity [12]: 100% | Activity [13]: 97% | Activity [14]: 100% | Activity [15]: 84% | Activity [16]: 89% | Activity [17]: 99% | Activity [18]: 98% | Activity [19]: 95% | Activity [20]: 90% | Activity [21]: 100% | Activity [22]: 100% | Activity [23]: 62% | Activity [24]: 100% | Activity [25]: 37%
